Test in all cases: CellTiter-Glo cell viability assay, cancer cell cytotoxicity/anti-proliferation panel (Chempartner)
Common to all, as to assay type: cell-based

Assay [1] has as its system AsPC-1, pancreas, ductal carcinoma. To be noted: for Inhibition: AsPC-1, 72 hours, compounds 10 μM starting, STS 2 μM starting, 10-pt, 3-fold dilution; for pIC50: Homo sapiens, ASPC1, 72 h, read-out: IC50 (absolute IC50).
Assay [2] has as its system PC-3 ATCC prostate adenocarcinoma.
Assay [3] concerns Caco-2 ATCC colon adenocarcinoma.
The subject of assay [4] is TE-6 RIKEN esophagus, carcinoma.
Where [5] appears, read: 72 h, read-out: IC50 (absolute IC50).

pIC50: −log10 of the molar value.

What is called Inhibition is the relative decrease from the control value, in per cent. A low value points to a weak effect. The pIC50 is −log10 of the IC50, conventionally taken in molar units.

Turning to `CCCCCc1cc2c(c(O)c1C(=O)NCCN(C)C)[C@@H]1C=C(C)CC[C@H]1C(C)(C)O2` [Ia6, (6aR,0aR)—N-(2-(dimethylamino)ethyl)-1-hydroxy-6,6,9-trimethyl-3-pentyl-6a,7,8,10a-tetrahydro-6H-benzo[c]chromene-2-carboxamide], in assay [1], the Inhibition was 54.46% and the pIC50 is 5.04.
Turning to `CCCCCc1cc2c(c(O)c1C(=O)NCCCN1CCOCC1)[C@@H]1C=C(C)CC[C@H]1C(C)(C)O2` [Ia9, (6aR,0aR)-1-hydroxy-6,6,9-trimethyl-N-(3-morpholinopropyl)-3-pentyl-6a,7,8,10a-tetrahydro-6H-benzo[c]chromene-2-carboxamide], the pIC50 was 5.00 in assay [2] (setting [5]); 5.13 in assay [1]; 5.05 in assay [3] (Homo sapiens, Caco-2, 72 h, read-out: IC50 (absolute IC50)); 5.13 in assay [4] (setting [5]). Besides, the Inhibition in assay [2] (PC-3, 72 hours, compounds 10 μM starting, STS 2 μM starting, 10-pt, 3-fold dilution) came out at 61.13%; in assay [1], 64.62%; in assay [3] (Caco-2, 72 hours, compounds 10 μM starting, STS 2 μM starting, 10-pt, 3-fold dilution), 60.81%; in assay [4] (TE-6, 72 hours, compounds 10 μM starting, STS 2 μM starting, 10-pt, 3-fold dilution), 67.27%.
